Converted amounts (≈) assume the structure as drawn. Read-outs that look alike come from different tables or passages of the source.
Legend:
A2780 cells = experiment: CellTiter-Glo in vitro cell proliferation assay, Example 8; type: cell-based, Human; details: Homo sapiens, A2780, Ovarian
In short: (§1)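 Cells plated in 384-well plates, incubated 24 h at 37 °C, then dosed with compound in DMSO at 0.0075–100 μM (DMSO-only controls) for 72 h. Proliferation read as luminescence after 60 min room-temperature incubation with 1:1 water:CellTiter-Glo.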

A2780CP cells = experiment: as above; type: cell-based, Human; details: Homo sapiens, A2780C/P
In short: as §1

A498 cells = experiment: as above; type: cell-based, Human; details: Homo sapiens
In short: as §1

BxPC-3 cells = experiment: as above; type: cell-based, Human; details: Homo sapiens, BxPC-3, Pancreatic
In short: as §1

H929 cells = experiment: as above; type: cell-based, Human; details: NCI-H929
In short: as §1

HEC-1a cells = experiment: as above; type: cell-based, Human; details: Homo sapiens
In short: as §1

MDA-MB-231 cells = experiment: as above; type: cell-based, Human; details: Homo sapiens, MDA-MB-231, Triple Negative Breast
In short: as §1

[1] = tested on: Jeko-1 Bortezomib resistant cells; experiment: as above; type: cell-based; details: Homo sapiens, Mantle Cell Lymphoma, 72 hours
In short: as §1

[2] = tested on: Jeko-1 Lenalidomide resistant cells; experiment: as above; type: cell-based; details: Homo sapiens, Mantle Cell Lymphoma, 72 hours
In short: as §1

Jeko-1 Parental cells = experiment: as above; type: cell-based; details: Homo sapiens, Mantle Cell Lymphoma, 72 hours
In short: as §1

MiaPaCa-2 cells = experiment: Cell colony formation assay, Example 16; type: cell-based, human
Method: (§2) In this example, the 560 and 562 compounds of Examples 12 and 14, respectively, were tested using cell colony formation assays. 500 viable S2-007 and MiaCaPa-2 cells were plated in six-well dishes and allowed to grow for 24 hours. The cells were then incubated in the presence or absence of the 560 and 562 compounds for 72 hours. The compound-containing media were then removed, and the cells were washed in PBS and incubated for an additional 10 days in complete media. The resultant colonies were then washed in PBS and fixed using 10% formalin for 10 minutes at room temperature, followed by washing with PBS and staining with Crystal Violet. The colonies of the control and compound-supplemented assays were then counted and compared.

S2-007 cells = experiment: Cell colony formation assay, Example 16; type: cell-based, human; details: 4 μg and 6 μg, 24, 48, and 72 hours, FIG. 123
Method: as §2

[3] = tested on: Mia-PaCa2 pancreatic cancer cells; experiment: Proliferation assay, Example 10; type: cell-based, human
Method: (§3) In this Example, pancreatic cancer cells (S2-007 and Mia-PaCa2) were treated with the previously described compound 518B562 at different times and concentrations, followed by generation of proliferation assays using the techniques described above. […] After 72 hours of treatment, the IC50 values of the compound against S2-007 and Mia-PaCa2 cells was determined as 3 μg/mL and 5 μg/mL, respectively.

[4] = tested on: S2-007 pancreatic cancer cells; experiment: Proliferation assay, Example 10; type: cell-based, human
Method: as §3

[5] = tested on: gene expression in S2-007 human pancreatic cancer cells; experiment: RNA-Seq clustergram/heat map of cancer stem cell markers, Example 11; type: cell-based; details: 5 micro-g/mL
Method: In this Example, a clustergram/heat map of RNA sequences for cancer stem cell (CSC) markers was performed before and after treatment of S2-007 human pancreatic cancer cells with 518B562. This experiment was conducted using a Whole Transcriptome Shotgun Sequence (WTSS), followed by bioinformatics data analysis of CSC markers. An RNA-Seq/heat map was generated to obtain a genome-wide gene expression profile of the pancreatic cancer cells.
One sample of the pancreatic cancer cell line was untreated, while an identical sample was treated with 5 micro-g/mL of 518B562. Comparative RNA sequences were performed on the samples using an Illumina HISeq 2500 sequencer at a 100 bp single read resolution. The sequence readings were mapped to the human genome (assembly GRCh38.re177) using the STAR software (Dobin et al. 2012). Transcript abundance estimates were generated using the Cufflinks software (Trapnell et al. 2010) and differential gene expression estimates were calculated using the Cuffdiff software (Trapnell et al. 2013). RNA-Seq generated around […], of which between 97.2% and 98.3% of the reads mapped to the reference genome.

[6] = Solubility observation on acid addition; type: physicochemical; details: addition of an acid such as hydrochloric acid to reduce the pH of the product
Method: The 518B562 compound was prepared by mixing together particulate harmaline and vanillin at a weight ratio of about 2:1 (vanillin:harmaline), followed by adding ethanol to a final concentration of the reactions of from about 10-100 mg/mL. This mixture is then allowed to sit for approximately 3 days at 50° C. A bluish solid forms, which is filtered and washed with methanol, and recovered.

[7] = Ovarian, 72 hours, read-out: Mean IC50
[8] = A498, Renal, 72 hours, read-out: Mean IC50
[9] = H929, Human Myeloma, 72 hours, read-out: Mean IC50
[10] = Endometrial, 72 hours, read-out: Mean IC50
[11] = doses of 1-25 μg/mL, time-dependent, 24-72 hours

COc1ccc2c3c([nH]c2c1)C(CC(CC1=NCCc2c1[nH]c1cc(OC)ccc21)c1ccccc1)=NCC3 [compound 560]
IC50 (A2780 cells; 72 hours, read-out: Mean IC50): 2.03 µM
IC50 (A2780CP cells; [7]): 4.4 µM
IC50 (A498 cells; [8]): 3.34 µM
IC50 (BxPC-3 cells; 72 hours, read-out: Mean IC50): 2.62 µM
IC50 (H929 cells; [9]): 4.3 µM
IC50 (HEC-1a cells; [10]): 5.1 µM
IC50 (MDA-MB-231 cells; 72 hours, read-out: Mean IC50): 3.89 µM
IC50 [1]: 4.08 µM
IC50 [2]: 5.07 µM
IC50 (Jeko-1 Parental cells): 4.7 µM
colony formation (MiaPaCa-2 cells; 3 μg and 5 μg, 24, 48, and 72 hours, FIG. 124): significantly disrupted colony formation at both levels of use
colony formation (S2-007 cells): significantly disrupted colony formation, particularly at the 6 μg level of use

COc1ccc2c3c([nH]c2c1)C(CC(CC1=NCCc2c1[nH]c1cc(OC)ccc21)c1ccc(O)c(OC)c1)=NCC3 [compound 562]
IC50 (A2780 cells; 72 hours, read-out: Mean IC50): 1.14 µM
IC50 (A2780CP cells; [7]): 2.28 µM
IC50 (A498 cells; [8]): 1.76 µM
IC50 (BxPC-3 cells; 72 hours, read-out: Mean IC50): 1.6 µM
IC50 (H929 cells; [9]): 4.5 µM
IC50 (HEC-1a cells; [10]): 4.75 µM
IC50 (MDA-MB-231 cells; 72 hours, read-out: Mean IC50): 1.62 µM
IC50 [1]: 4.81 µM
IC50 [2]: 6.19 µM
IC50 (Jeko-1 Parental cells): 4.41 µM
IC50 ([3]; Homo sapiens, MIA PaCa-2, after 72 hours of treatment): 5 µg/mL (≈ 8.89 µM)
inhibition of proliferation [3, 11]: significantly inhibited the proliferation
IC50 ([4]; Homo sapiens, Pancreatic cancer cell, after 72 hours of treatment): 3 µg/mL (≈ 5.33 µM)
inhibition of proliferation [4, 11]: significantly inhibited the proliferation
angiogenesis markers [OXTR, SYCP2, CRHR1, SPEG] [5]: down-regulated
anti-apoptotic markers [TUG1, FABP1, PI3, DOKS] [5]: down-regulated
anti-proliferative markers [NRP1, ATF2A, CYP1b1, ALPP, DEPTOR, MT1F] [5]: up-regulated
apoptotic markers [ICAM5, WNK4, ALPP, LTRC26, SHBG, MT1X] [5]: up-regulated
proliferation signaling markers [FOXj1, SPP1, C3] [5]: down-regulated
colony formation (MiaPaCa-2 cells; 3 μg, 7 μg, 10 μg, and 12 μg, 24, 48, and 72 hours, FIG. 127): significantly disrupted colony formation, particularly at the higher levels of use
solubility [6]: increased the solubility thereof

COc1ccc2c3c([nH]c2c1)C(CC(CC1=NCCc2c1[nH]c1cc(OC)ccc21)c1cccc(Oc2ccccc2)c1)=NCC3 [compound 594, diharmaline 3-phenoxybenzaldehyde]
IC50 (A2780 cells; Example 24, read-out: Mean): 2.58 µg/mL
IC50 (A2780 cells; Example 24, read-out: Trial A): 2.67 µg/mL
IC50 (A2780 cells; Example 24, read-out: Trial B): 2.49 µg/mL
IC50 (A2780CP cells; Example 24, Ovarian, read-out: Mean): 3.27 µg/mL
IC50 (A2780CP cells; Example 24, Ovarian, read-out: Trial A): 3.57 µg/mL
IC50 (A2780CP cells; Example 24, Ovarian, read-out: Trial B): 2.96 µg/mL
IC50 (A498 cells; Example 24, A498, RCC, read-out: Mean): 4.69 µg/mL
IC50 (A498 cells; Example 24, A498, RCC, read-out: Trial A): 4.82 µg/mL
IC50 (A498 cells; Example 24, A498, RCC, read-out: Trial B): 4.56 µg/mL
IC50 (BxPC-3 cells; Example 24, read-out: Mean): 3.39 µg/mL
IC50 (BxPC-3 cells; Example 24, read-out: Trial A): 3.45 µg/mL
IC50 (BxPC-3 cells; Example 24, read-out: Trial B): 3.33 µg/mL
IC50 (H929 cells; Example 24, H929, human myeloma, read-out: Mean): 5.96 µg/mL
IC50 (H929 cells; Example 24, H929, human myeloma, read-out: Trial A): 6.5 µg/mL
IC50 (H929 cells; Example 24, H929, human myeloma, read-out: Trial B): 5.42 µg/mL
IC50 (HEC-1a cells; Example 24, Endometrial, read-out: Mean): 3.29 µg/mL
IC50 (HEC-1a cells; Example 24, Endometrial, read-out: Trial A): 3.15 µg/mL
IC50 (HEC-1a cells; Example 24, Endometrial, read-out: Trial B): 3.42 µg/mL
IC50 (MDA-MB-231 cells; Example 24, read-out: Mean): 3.09 µg/mL
IC50 (MDA-MB-231 cells; Example 24, read-out: Trial A): 3.1 µg/mL
IC50 (MDA-MB-231 cells; Example 24, read-out: Trial B): 3.08 µg/mL
